Test results from PubChem BioAssay AID2060513 (Molecular Pharmacology Branch, DTP, NCI, 2025).
Several values for one entry are separate records, joined by “and”; a condition that tells them apart may be missing. Equal values may be shown once.

Tested on: 299254-011-R-J1-PDC complex spheroids viability
Assay: Anticancer human tumor 299254-011-R-J1-PDC patient-derived melanoma cell line growth inhibition [GQUAD]
Settings: for viability, T/C: stronger effect = lower value
Source text: DNA G-quadruplex Stabilizer Agents in Combinations in Complex Spheroids
A high-throughput screen of multi-cell type tumor spheroids was designed to identify active combinations of DNA G-quadruplex stabilizer agents and targeted small molecules. Complex spheroids include a stromal component modeled by human endothelial cells (HUVEC) and fibroblasts modeled by human mesenchymal stem cells (MSCs). The concentration ranges selected for each drug and investigational agent were based upon clinically achievable concentrations if the clinical Cmax of the agent was known.
Compounds. The drugs and investigational agents: pidnarulex (CX-5461; NSC782164), APTO-253 (NSC789042), BRACO-19 (NSC847499), peposertib (NSC802822), ceralasertib (NSC780249), elimusertib (NSC800525), camonsertib (NSC841442), AZD-1390 (NSC803789), olaparib (NSC753686), talazoparib (NSC767125), ART-558 (NSC835418), sotorasib (NSC818433), MRTX-1133 (NSC836407), SN-38 (NSC673596), topotecan (NSC609699), etoposide (NSC141540), doxorubicin (NSC123127), gemcitabine (NSC613327), 5-fluorouracil (NSC19893), paclitaxel (NSC125973), vemurafenib (NSC761431), panobinostat (NSC761190), R-306465 (JNJ-16241199; NSC773264), adavosertib (NSC754352), TP-3654 (NSC805149), carboplatin (NSC241240), KSQ-4279 (NSC840948), and staurosporine (NSC755774) were obtained from the National Cancer Institute (NCI) Developmental Therapeutics Program Chemical Repository (34). The FDA-approved anticancer drug set is available from the NCI Developmental Therapeutics Program. […] The stock solutions were prepared in dimethyl sulfoxide (DMSO, Sigma-Aldrich, St. Louis, MO, cat. D2650) at 800-fold the tested concentration and stored at -70 degrees C prior to their use. All drugs and investigational agents were tested over a range starting from a high concentration at or near the clinical Cmax and decreasing in half-log increments. If the clinical Cmax for an agent had not been determined, the highest concentration tested was 10 microM.
2.3 Cell Culture. All cells were maintained in an incubator at 37 degrees C and 5% CO2 with 95% humidity. The PDC lines were cultured according to standard operating procedures established by the NCI PDMR. All PDCs were thawed and cultured in Matrigel-coated flasks prepared with a working solution of 1X Ham's F-12 nutrient mix, without supplementation (Invitrogen, cat. 11765054), 100 U/mL penicillin-streptomycin (Invitrogen, cat. 15140122), and 2.5% Matrigel (Corning Inc., cat. 354248) for the first three passages. The 857933-349-R-J2-PDC line was cultured in 6C/Colon 1B media, which includes advanced DMEM/F-12 (Thermo Fisher Scientific, cat. 12634028), 10 mM HEPES (Thermo Fisher Scientific, cat. 15630080), 1X GlutaMAX supplement (Thermo Fisher Scientific, cat. 35050061), 0.1 mg/mL primocin (InvivoGen, cat. ant-pm-2), 10% defined fetal bovine serum, heat inactivated (HyClone Laboratories Inc., cat. SH30070.03HI), 50% L-WRN conditioned media (ATCC, cat. CRL-3276), 1.25 mM N-Acetyl-L-cysteine (Sigma-Aldrich, cat. A9165), 10 mM nicotinamide (Sigma-Aldrich, cat. N0636), 1X B-27 supplement (Thermo Fisher Scientific, cat. 17504044), 1X N-2 supplement (Thermo Fisher Scientific, cat. 17502048), 10 microM Y-27632 dihydrochloride (Tocris Bioscience, cat. 1254), and 50 ng/mL human EGF recombinant protein (Thermo Fisher Scientific, cat. PHG0311). The 485176-168-R4-J1-PDC line was cultured in Panc media, which includes all 6C/Colon 1B media components plus 100 ng/mL human FGF-10 (Thermo Fisher Scientific, cat. 100-26), 500 nM SB-431542 (Selleckchem, cat. S1067), and gastrin (Tocris, cat. 3006).
[…]
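Further: spheroids exposed to the agents for seven days before readout.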
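Wherever viability, T/C is given: percent viability relative to DMSO vehicle control wells = 100%.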

In the case of CC1COCCN1c1cc(C2(S(C)(=N)=O)CC2)nc(-c2ccnc3[nH]ccc23)n1 (centres undefined), the viability, T/C (compound 0.0316 µM) is reported as 98.9% (2×) and 94.3%, the viability, T/C (compound 0.1 µM) is reported as 100% and 103% and 80.5% and the viability, T/C (compound 0.316 µM) is reported as 79.7% and 97% and 97.8%. The viability, T/C (compound 1 µM) was 68% and 100% and 61%, the viability, T/C (compound 3.16 µM) was 67.9% and 60.8% and 37.7% and the viability, T/C (compound 10 µM) was 28.7% and 29.5% and 16.5%. The IC50 (curve of compound) was 4410 nM and 4700 nM and 1810 nM.
With CCc1c2c(nc3ccc(O)cc13)-c1cc3c(c(=O)n1C2)COC(=O)[C@]3(O)CC + Cc1[nH]c2ccc(F)cc2c1-c1nc2c3cccnc3c3ncccc3c2[nH]1 the IC50 (curve of first compound, second compound 0.0316 µM) was over 316 nM, the IC50 (curve of first compound, second compound 0.1 µM) was over 316 nM and the IC50 (curve of first compound, second compound 0.316 µM) was over 316 nM. The IC50 (curve of first compound, second compound 1 µM) was over 316 nM, the IC50 (curve of first compound, second compound 3.16 µM) was over 316 nM and the IC50 (curve of first compound, second compound 10 µM) was over 316 nM. For the same compound, the viability, T/C (second compound 0.0316 µM, first compound 0.000999 µM) was 106%, the viability, T/C (second compound 0.0316 µM, first compound 0.00316 µM) was 88.8% and the viability, T/C (second compound 0.0316 µM, first compound 0.00999 µM) was 73.2%. It also gave a viability, T/C (second compound 0.0316 µM, first compound 0.0316 µM) of 73.7%, a viability, T/C (second compound 0.0316 µM, first compound 0.0999 µM) of 79.6% and a viability, T/C (second compound 0.0316 µM, first compound 0.316 µM) of 66.1%. For the same compound, the viability, T/C (second compound 0.1 µM, first compound 0.000999 µM) was 108%, the viability, T/C (second compound 0.1 µM, first compound 0.00316 µM) was 117% and the viability, T/C (second compound 0.1 µM, first compound 0.00999 µM) was 85.4%. For the same compound, the viability, T/C (second compound 0.1 µM, first compound 0.0316 µM) was 90.2%, the viability, T/C (second compound 0.1 µM, first compound 0.0999 µM) was 79.6% and the viability, T/C (second compound 0.1 µM, first compound 0.316 µM) was 64.8%. It also gave a viability, T/C (second compound 0.316 µM, first compound 0.000999 µM) of 91.1%, a viability, T/C (second compound 0.316 µM, first compound 0.00316 µM) of 117% and a viability, T/C (second compound 0.316 µM, first compound 0.00999 µM) of 69.2%. The viability, T/C (second compound 0.316 µM, first compound 0.0316 µM) was 84.2%, the viability, T/C (second compound 0.316 µM, first compound 0.0999 µM) was 88.2% and the viability, T/C (second compound 0.316 µM, first compound 0.316 µM) was 70.2%. The viability, T/C (second compound 1 µM, first compound 0.000999 µM) was 105%, the viability, T/C (second compound 1 µM, first compound 0.00316 µM) was 92.7% and the viability, T/C (second compound 1 µM, first compound 0.00999 µM) was 94.2%. It also gave a viability, T/C (second compound 1 µM, first compound 0.0316 µM) of 77.5%, a viability, T/C (second compound 1 µM, first compound 0.0999 µM) of 84% and a viability, T/C (second compound 1 µM, first compound 0.316 µM) of 68.6%. It also gave a viability, T/C (second compound 3.16 µM, first compound 0.000999 µM) of 102%, a viability, T/C (second compound 3.16 µM, first compound 0.00316 µM) of 114% and a viability, T/C (second compound 3.16 µM, first compound 0.00999 µM) of 75.7%. It also gave a viability, T/C (second compound 3.16 µM, first compound 0.0316 µM) of 80.7%, a viability, T/C (second compound 3.16 µM, first compound 0.0999 µM) of 79.9% and a viability, T/C (second compound 3.16 µM, first compound 0.316 µM) of 72.2%. It also gave a viability, T/C (second compound 10 µM, first compound 0.000999 µM) of 96.1%, a viability, T/C (second compound 10 µM, first compound 0.00316 µM) of 94.4% and a viability, T/C (second compound 10 µM, first compound 0.00999 µM) of 80.7%. For the same compound, the viability, T/C (second compound 10 µM, first compound 0.0316 µM) was 76.8%, the viability, T/C (second compound 10 µM, first compound 0.0999 µM) was 60.1% and the viability, T/C (second compound 10 µM, first compound 0.316 µM) was 58.8%.
